Experimental data taken from article PMC11623267, “Inhibitors of malaria parasite cyclic nucleotide phosphodiesterases block asexual blood-stage development and mosquito transmission” (Science Advances, 2024).
Like-named read-outs stand apart in the source and are kept apart here.

How the values were obtained:
[1] = system: P. falciparum ABS; details: read-out: Median effective dose, P. falciparum ABS growth inhibition; cited from earlier work
[2] = system: P. falciparum 3D7; assay: P. falciparum 3D7 LDH growth inhibition assay (asexual blood stage); assay type: cell-based, Plasmodium falciparum
Description: P. falciparum isolates (3D7/Dd2) were obtained from BEI Resources and were cultured using standard procedures as described elsewhere ([47]). Briefly, P. falciparum was grown in RPMI 1640 medium (10.3 g/liter) supplemented with L-glutamine (2 mM), hypoxanthine (150 μM), Hepes (25 mM), D-glucose (12 mM), sodium bicarbonate (25.7 mM), AlbuMAX II (0.5% or 5 g/liter) (pH 7.4), and 2% RBC (type O+, freshly prepared). Cultures were replenished with fresh medium and RBCs every other day. For RBC preparation, whole blood was centrifuged at 415g at room temperature for 12 min. After that, the plasma and buffy coat were removed, and packed RBCs were washed three times with 3 vol of RPMI 1640. Last, RBCs were resuspended in 1:1 vol of complete RPMI 1640 medium (containing 0.5% AlbuMAX II).
The P. falciparum 3D7 and Dd2 LDH growth inhibition assay was carried out as described elsewhere ([48]) with minor modification of the parasitological conditions (10 to 15% parasitemia with ≥80% rings). Data were normalized to percent growth inhibition with respect to […] (for 3D7, a mixture of 100 nM chloroquine and 100 nM atovaquone as 100% inhibition; for Dd2, a mixture of 200 nM DHA and 200 nM atovaquone as 100% inhibition) controls.

[3] = target: T1, PDEβ (Plasmodium falciparum, UniProt Q8I6Z7); assay: cAMP hydrolysis SPA in schizont membrane lysates; assay type: biochemical; details: read-out: IC50 against PDEβ
T1 construct: endogenous in cells; host or cells: P. falciparum 3D7 schizonts, NP-40 membrane lysate
T1 sequence (Q8I6Z7 whole entry): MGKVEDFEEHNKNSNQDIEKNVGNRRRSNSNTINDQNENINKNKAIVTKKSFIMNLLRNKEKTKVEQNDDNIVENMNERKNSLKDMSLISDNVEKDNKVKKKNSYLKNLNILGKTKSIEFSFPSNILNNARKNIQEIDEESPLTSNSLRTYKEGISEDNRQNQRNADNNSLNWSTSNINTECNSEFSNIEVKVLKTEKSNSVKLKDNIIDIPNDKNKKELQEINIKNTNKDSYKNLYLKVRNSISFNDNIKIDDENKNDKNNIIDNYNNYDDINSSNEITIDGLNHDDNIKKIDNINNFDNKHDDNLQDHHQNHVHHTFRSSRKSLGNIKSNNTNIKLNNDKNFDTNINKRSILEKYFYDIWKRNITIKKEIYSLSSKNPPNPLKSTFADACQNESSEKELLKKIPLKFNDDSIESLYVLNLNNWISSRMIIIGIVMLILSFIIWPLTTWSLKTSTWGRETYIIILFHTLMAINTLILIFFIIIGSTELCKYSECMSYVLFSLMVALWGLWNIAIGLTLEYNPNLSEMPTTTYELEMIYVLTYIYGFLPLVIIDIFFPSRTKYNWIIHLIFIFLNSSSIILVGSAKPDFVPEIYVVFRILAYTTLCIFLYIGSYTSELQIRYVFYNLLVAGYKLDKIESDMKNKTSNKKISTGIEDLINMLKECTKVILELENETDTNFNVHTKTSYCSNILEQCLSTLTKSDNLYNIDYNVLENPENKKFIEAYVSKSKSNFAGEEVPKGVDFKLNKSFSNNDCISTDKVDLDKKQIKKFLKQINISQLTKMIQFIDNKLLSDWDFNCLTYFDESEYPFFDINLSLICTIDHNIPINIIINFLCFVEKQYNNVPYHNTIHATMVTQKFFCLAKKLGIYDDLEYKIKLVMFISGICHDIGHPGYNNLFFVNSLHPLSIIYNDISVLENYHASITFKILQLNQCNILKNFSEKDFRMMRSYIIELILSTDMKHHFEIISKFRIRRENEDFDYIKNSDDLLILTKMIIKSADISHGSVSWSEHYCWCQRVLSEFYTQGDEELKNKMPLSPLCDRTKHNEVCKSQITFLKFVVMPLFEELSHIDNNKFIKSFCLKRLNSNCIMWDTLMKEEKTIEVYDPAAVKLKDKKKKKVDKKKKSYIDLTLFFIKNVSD
Excerpt: We identified three PDE inhibitor chemical series generated by Pfizer, with structures in the public domain, which have activity against malaria parasites (see the “Chemistry strategy summary” section). These series were originally designed to inhibit human PDEs and were chosen as chemistry start points to optimize activity against malaria parasites. More than 400 new analogs were generated (full details of their properties will be reported in a separate paper, in preparation) through iterative rounds of synthesis and testing. The chemistry start points for each of the series were SAL-0010042 (5-benzyl), SAL-0010043 (5-aryl), and SAL-0010034 (2-alkyl) (see Materials and Methods and fig. S1A). S2. Analytical data for these compounds are provided in data S1. All newly synthesized compounds were tested for inhibition of native cAMP-PDE activity in mature schizont crude membrane preparations and inhibition of P. falciparum ABS growth. S3A. […] The unbound EC50 values for the compounds in the parasite growth inhibition assay were consistently calculated to be sevenfold higher than the IC50 values in the biochemical assay. Given that PDEβ is dual specific (i.e., can hydrolyze both cAMP and cGMP), we also determined IC50 values for cGMP hydrolysis. […] The IC50 values measured for cGMP hydrolysis in blood-stage schizonts were generally similar to those for cAMP hydrolysis (Table 1). […]
(§1) The cyclic nucleotide hydrolytic activity of membrane-associated parasite PDE enzymes was measured by a scintillation proximity assay (SPA) ([18]) using lysates of mature P. falciparum schizonts or stage IV/V gametocytes. […] The IC50 values for the compounds were determined using threefold serial dilutions in duplicate. […] The reactions were terminated by addition of 25 μl of PDE SPA beads (PerkinElmer, RPNQ0150), and after 20 min of incubation at room temperature, scintillation was measured using a Wallac 1450 Microbeta Counter (PerkinElmer) for 30 s. […]

[4] = system: cGMP-PDE activity in gametocyte lysates (PDEα, PDEδ); assay: cGMP hydrolysis SPA in stage IV/V gametocyte membrane lysates; assay type: biochemical, Plasmodium falciparum; details: gametocyte lysate; geometric mean ×/÷ geometric SD
Description: cGMP signaling is known to play an essential role in gametogenesis in Plasmodium ([19], [20], [28]). We therefore tested the effects of all newly synthesized analogs for their ability to inhibit cGMP hydrolysis in crude gametocyte membrane preparations. […] S5A. These findings were also consistent with our enzyme-linked immunosorbent assay (ELISA)–based measurement of elevated cGMP levels in gametocytes following incubation with an example of each subseries (Fig. 2A). […] The levels of cAMP detected in gametocytes were similar in dimethyl sulfoxide (DMSO)–, XA-, and inhibitor-treated samples, and we could detect little or no cAMP hydrolysis in mature gametocytes (fig. S5B). […]
as §1

[5] = system: P. falciparum Dd2-B2; assay: 72-hour flow cytometry EC50 assay, Dd2-B2 parental line; assay type: cell-based, Plasmodium falciparum; details: Plasmodium falciparum, DD2, read-out: EC50 Dd2-B2 parental line
Description: (§2) Stocks of SAL-0010003 (5-benzyl), SAL-0010355 (5-aryl), and SAL-0010419 (2-alkyl) were made at 10 and 1 mM in DMSO. Aliquots in use were stored at −20°C, and long-term storage was at −80°C. All in vitro studies were done such that the final DMSO concentration was <0.5%. P. falciparum ABS parasites were cultured at 3% hematocrit in human O+ RBCs in RPMI 1640 medium, supplemented with 25 mM Hepes, 50 mg L-hypoxanthine, 2 mM L-glutamine, 0.225% sodium bicarbonate, 0.5% (w/v) AlbuMAX II (Invitrogen) and gentamycin (10 μg/ml), in modular incubator chambers (Billups-Rothenberg) at 5% O2, 5% CO2, and 90% N2 at 37°C. Dd2-B2 (obtained from T. Wellems, National Institute of Allergy and Infectious Diseases, National Institutes of Health) is a genetically homogenous line that was cloned from Dd2 by limiting dilution. To define the EC50 and EC90 values of ABS parasites, Dd2-B2 ring-stage cultures at 0.2% parasitemia and 1% hematocrit were exposed for 72 hours to a range of 10 drug concentrations that were twofold serially diluted in duplicates along with drug-free controls. Parasite survival was assessed by flow cytometry on an iQue flow cytometer (Sartorius) using SYBR Green and MitoTracker Deep Red FM (Life Technologies) as nuclear stain and vital dyes, respectively. After determination of the EC50 and EC90 values for the three compounds with the P. falciparum Dd2-B2 clone, one single-step selection was set up using 2 × 10^5 parasites in each well of a 96-well plate at a starting concentration of 3× EC90. Parasites were cleared from the culture rapidly, and cultures were screened three times weekly by flow cytometry and counted as positive for recrudescence when the overall parasitemia reached 0.3% and the parasites were visible on a blood smear. DNA was extracted from recrudescent lines using a QIAGEN QIAamp Blood Mini Kit, and libraries were prepared with the Illumina DNA Prep kit for whole-genome sequencing on the Illumina MiSeq using a V3 2 × 300–base pair flow cell.

[6] = system: P. falciparum Dd2-B2 lines selected under drug pressure; assay: 72-hour flow cytometry EC50 assay, lines selected under drug pressure; assay type: cell-based, Plasmodium falciparum; details: for EC50: Plasmodium falciparum
Description: Three examples of an additional compound series developed independently [NPD-2958, NPD-3518 ([31]), and NPD-3738; fig.
as §2

[7] = system: malaria parasites; parameters: method as in PMID 25951195, PMID 33262483; details: cited from earlier work

## CCCOc1ccccc1-c1nc2nn[nH]c2c(=O)[nH]1 [zaprinast]
[1]
  EC50: 35 µM

## CCCc1n[nH]c2c(=O)[nH]c(-c3cc(S(=O)(=O)N4CCN(C)CC4)ccc3OCC)nc12 [des-Me sildenafil, desmethyl (des-Me) sildenafil]
[2]; Plasmodium falciparum, 3D7, read-out: EC50 against ABS parasites
  EC50: 0.415 µM
[2]; des-Me sildenafil vs sildenafil
  Difference in ABS EC50 vs sildenafil: > 60 fold
[3]
  IC50: 0.0367 µM

## CCc1c2nc(-c3cc(-c4cccnc4)cnc3OCC(C)C)[nH]c(=O)c2nn1CCOC [SAL-0010419]
[4]
  IC50: > 10 µM
[5]
  EC50: 0.0614 µM
[6]; DD2, read-out: EC50, line selected with SAL-0010419, Well C4
  EC50: 0.359 µM
[6]; DD2, read-out: EC50, line selected with SAL-0010419, Well E11
  EC50: 0.344 µM
[6]; DD2, read-out: EC50, line selected with SAL-0010419, Well F8
  EC50: 0.293 µM
[6]; selected lines vs Dd2-B2 parental line, ±SD
  Mean fold change in EC50: 5.4 ± 0.6 fold
[6]; vs Dd2-B2
  EC50 shift, line selected with SAL-0010419, Well C4: 5.9 fold
  EC50 shift, line selected with SAL-0010419, Well E11: 5.6 fold
  EC50 shift, line selected with SAL-0010419, Well F8: 4.8 fold

## CN1CC(=O)N2[C@H](c3ccc4c(c3)OCO4)c3[nH]c4ccccc4c3C[C@@H]2C1=O [tadalafil]
[7]
  IC50 against malaria parasites: mid-to-high micromolar range
